# Experimental data taken from US20230407243A1, “GENETIC PLATFORM TO INVESTIGATE THE FUNCTIONS OF BACTERIAL DRUG EFFLUX PUMPS” (priority 2022, published 2023).
# Assays:
# Type in all cases: cell-based, Escherichia coli
# E. coli EKO-35 = test: microbe, parasite or virus in culture; details: for Fold change of MICs: EKO-35 compared to EKO-35 (reference); for Minimum inhibitory concentration (MIC), EKO-35: Table 10, without pore; for Minimum inhibitory concentration (MIC), EKO-35 / Minimum Inhibitory Concentration, EKO-35: technical duplicate; for Minimum Inhibitory Concentration, EKO-35: Table 13A, non-porinated
# Outline: (§1)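 Turbidity (OD600, pre-incubation subtracted) defined growth after 18 h at 37 °C in MHB II. The inoculum was diluted 1/2000 from an OD600 ~1.0 PBS suspension of an overnight LB culture. Compounds were run as duplicate twofold dilutions.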
# E. coli ΔtolC = test: microbe, parasite or virus in culture; details: technical duplicate; for Minimum inhibitory concentration (MIC), ΔtolC: Table 10, without pore; for Minimum Inhibitory Concentration, ΔtolC: Table 13A, non-porinated
# Outline: as §1
# [1] = test system: wild-type E. coli K-12 str. BW25113; test: microbe, parasite or virus in culture; details: technical duplicate; for Minimum inhibitory concentration (MIC), K-12: Table 10, without pore; for Minimum Inhibitory Concentration, K-12: Table 13A, non-porinated
# Outline: as §1
# EKO-35 araC::emrAB = test: MIC susceptibility profiling, efflux platform; details: for Fold change of MICs: EKO-35 araC::emrAB compared to EKO-35; for Minimum Inhibitory Concentration, EKO-35 araC::emrAB: Table 13B, non-porinated, technical duplicate
# Outline: as §1
# EKO-35 araC::mdtEF = test: MIC susceptibility profiling, efflux platform; details: for Fold change of MICs: EKO-35 araC::mdtEF compared to EKO-35; for Minimum Inhibitory Concentration, EKO-35 araC::mdtEF: Table 13A, non-porinated, technical duplicate
# Outline: as §1
# EKO-35 araC::acrD = test: MIC susceptibility profiling, efflux platform; details: for Fold change of MICs: EKO-35 araC::acrD compared to EKO-35; for Minimum Inhibitory Concentration, EKO-35 araC::acrD: Table 13A, non-porinated, technical duplicate
# Outline: as §1
# EKO-35 araC::macAB = test: MIC susceptibility profiling, efflux platform; details: for Fold change of MICs: EKO-35 araC::macAB compared to EKO-35; for Minimum Inhibitory Concentration, EKO-35 araC::macAB: Table 13B, non-porinated, technical duplicate
# Outline: as §1
# EKO-35 araC::acrB = test: MIC susceptibility profiling, efflux platform; details: for Fold change of MICs: EKO-35 araC::acrB compared to EKO-35; for Minimum Inhibitory Concentration, EKO-35 araC::acrB: Table 13A, non-porinated, technical duplicate
# Outline: as §1
# EKO-35 araC::acrEF = test: MIC susceptibility profiling, efflux platform; details: for Fold change of MICs: EKO-35 araC::acrEF compared to EKO-35; for Minimum Inhibitory Concentration, EKO-35 araC::acrEF: Table 13A, non-porinated, technical duplicate
# Outline: as §1
# EKO-35 araC::emrKY = test: MIC susceptibility profiling, efflux platform; details: for Fold change of MICs: EKO-35 araC::emrKY compared to EKO-35; for Minimum Inhibitory Concentration, EKO-35 araC::emrKY: Table 13B, non-porinated, technical duplicate
# Outline: as §1
# [2] = test system: EKO-35 araC::mexCD (MexCD from P. aeruginosa); test: MIC susceptibility profiling, efflux platform; details: for Fold change of MICs: EKO-35 araC::mexCD compared to EKO-35; for Minimum Inhibitory Concentration, EKO-35 araC::mexCD: Table 13B, non-porinated, technical duplicate
# Outline: as §1
# EKO-35 araC::acrBD408A = test: MIC susceptibility profiling, efflux platform; details: for Fold change of MICs: EKO-35 araC::acrBD408A compared to EKO-35; for Minimum Inhibitory Concentration, EKO-35 araC::acrBD408A: Table 13B, non-porinated, technical duplicate
# Outline: as §1
# EKO-35 araC::mdtBC = test: MIC susceptibility profiling, efflux platform; details: for Fold change of MICs: EKO-35 araC::mdtBC compared to EKO-35; for Minimum Inhibitory Concentration, EKO-35 araC::mdtBC: Table 13B, non-porinated, technical duplicate
# Outline: as §1
# wild-type (WT) K-12-Pore = test: microbe, parasite or virus in culture; details: technical duplicate; for Minimum inhibitory concentration (MIC), Pore K-12: Table 10, with pore; for Minimum inhibitory concentration, K-12 (WT)-Pore: Table 14A, porinated
# Outline: (§2)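 MIC values come from background-corrected OD600 readings (pre-incubation OD subtracted) after 18 h at 37 °C and 900 rpm in MHB II. Compounds were tested in duplicate as 2-fold dilutions. The inoculum came from 18 h LB cultures adjusted to OD600 ~1.0 and diluted 1/2000, and the pore-bearing strains were vancomycin-checked beforehand.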
# ΔtolC-Pore = test: microbe, parasite or virus in culture; details: technical duplicate; for Minimum inhibitory concentration (MIC), Pore ΔtolC: Table 10, with pore; for Minimum inhibitory concentration, ΔtolC-Pore: Table 14A, porinated
# Outline: as §2
# EKO-35 araC::emrKY Pore = test: MIC susceptibility profiling, porinated efflux platform; details: for Fold changes of MICs: EKO-35 araC::emrKY Pore compared to EKO-35-Pore; for Minimum inhibitory concentration: EKO-35 araC::emrKY Pore, technical duplicate
# Outline: as §2
# [3] = test system: EKO-35 araC::acrBD408A Pore; test: as above; details: for Fold changes of MICs: EKO-35 araC::acrBD408A Pore compared to EKO-35-Pore; for Minimum inhibitory concentration: EKO-35 araC::acrBD408A Pore, technical duplicate
# Outline: as §2
# EKO-35 araC::acrD Pore = test: as above; details: for Fold changes of MICs: EKO-35 araC::acrD Pore compared to EKO-35-Pore; for Minimum inhibitory concentration, EKO-35 araC::acrD Pore: Table 14A, porinated, technical duplicate
# Outline: as §2
# EKO-35-Pore = test: MIC susceptibility profiling, porinated strain; details: for Fold changes of MICs: EKO-35-Pore compared to EKO-35-Pore (reference); for Minimum inhibitory concentration (MIC), Pore EKO-35: Table 10, with pore; for Minimum inhibitory concentration (MIC), Pore EKO-35 / Minimum inhibitory concentration, EKO-35-Pore: technical duplicate; for Minimum inhibitory concentration, EKO-35-Pore: Table 14A, porinated
# Outline: as §2
structure (smiles),measurement,setting,value
O=C(NC(=O)N1CCc2c([nH]c3ccccc23)C1C(F)(F)F)c1ccccc1 (stereo not drawn) [compound 13],Fold change of MICs,E. coli EKO-35,1 fold
same,"Minimum inhibitory concentration (MIC), EKO-35",E. coli EKO-35,40 µg/mL
same,"Minimum Inhibitory Concentration, EKO-35",E. coli EKO-35,40 µg/mL
same,susceptibility of EKO-35 to the compound,E. coli EKO-35; synthetic efflux substrates of FIG. 12,susceptible
same,"Minimum inhibitory concentration (MIC), ΔtolC",E. coli ΔtolC,1.25 µg/mL
same,"Minimum Inhibitory Concentration, ΔtolC",E. coli ΔtolC,1.25 µg/mL
same,"Minimum inhibitory concentration (MIC), K-12",[1],320 µg/mL
same,"Minimum Inhibitory Concentration, K-12",[1],320 µg/mL
same,Fold change of MICs,EKO-35 araC::emrAB,8 fold
same,"Minimum Inhibitory Concentration, EKO-35 araC::emrAB",EKO-35 araC::emrAB,320 µg/mL
same,Fold change of MICs,EKO-35 araC::mdtEF,8 fold
same,"Minimum Inhibitory Concentration, EKO-35 araC::mdtEF",EKO-35 araC::mdtEF,320 µg/mL
same,Fold change of MICs,EKO-35 araC::acrD,8 fold
same,"Minimum Inhibitory Concentration, EKO-35 araC::acrD",EKO-35 araC::acrD,320 µg/mL
same,Fold change of MICs,EKO-35 araC::macAB,1 fold
same,"Minimum Inhibitory Concentration, EKO-35 araC::macAB",EKO-35 araC::macAB,40 µg/mL
same,Fold change of MICs,EKO-35 araC::acrB,8 fold
same,"Minimum Inhibitory Concentration, EKO-35 araC::acrB",EKO-35 araC::acrB,320 µg/mL
same,Fold change of MICs,EKO-35 araC::acrEF,8 fold
same,"Minimum Inhibitory Concentration, EKO-35 araC::acrEF",EKO-35 araC::acrEF,320 µg/mL
same,Fold change of MICs,EKO-35 araC::emrKY,1 fold
same,"Minimum Inhibitory Concentration, EKO-35 araC::emrKY",EKO-35 araC::emrKY,40 µg/mL
same,Fold change of MICs,[2],8 fold
same,"Minimum Inhibitory Concentration, EKO-35 araC::mexCD",[2],320 µg/mL
same,Fold change of MICs,EKO-35 araC::acrBD408A,1 fold
same,"Minimum Inhibitory Concentration, EKO-35 araC::acrBD408A",EKO-35 araC::acrBD408A,40 µg/mL
same,Fold change of MICs,EKO-35 araC::mdtBC,1 fold
same,"Minimum Inhibitory Concentration, EKO-35 araC::mdtBC",EKO-35 araC::mdtBC,40 µg/mL
same,"Minimum inhibitory concentration (MIC), Pore K-12",wild-type (WT) K-12-Pore,320 µg/mL
same,"Minimum inhibitory concentration, K-12 (WT)-Pore",wild-type (WT) K-12-Pore,320 µg/mL
same,"Minimum inhibitory concentration (MIC), Pore ΔtolC",ΔtolC-Pore,1.25 µg/mL
same,"Minimum inhibitory concentration, ΔtolC-Pore",ΔtolC-Pore,1.25 µg/mL
same,Fold changes of MICs,EKO-35 araC::emrKY Pore,1 fold
same,Minimum inhibitory concentration,EKO-35 araC::emrKY Pore,2.5 µg/mL
same,Fold changes of MICs,[3],1 fold
same,Minimum inhibitory concentration,[3],5 µg/mL
same,Fold changes of MICs,EKO-35 araC::acrD Pore,2 fold
same,"Minimum inhibitory concentration, EKO-35 araC::acrD Pore",EKO-35 araC::acrD Pore,10 µg/mL
same,Fold changes of MICs,EKO-35-Pore,1 fold
same,"Minimum inhibitory concentration (MIC), Pore EKO-35",EKO-35-Pore,5 µg/mL
same,"Minimum inhibitory concentration, EKO-35-Pore",EKO-35-Pore,5 µg/mL
Cn1cc(Br)c(-c2cccc(NC(=O)Nc3ccc(OC(F)(F)F)cc3)c2)n1 [compound 14],Fold change of MICs,E. coli EKO-35,1 fold
same,"Minimum inhibitory concentration (MIC), EKO-35",E. coli EKO-35,320 µg/mL
same,"Minimum Inhibitory Concentration, EKO-35",E. coli EKO-35,320 µg/mL
same,"Minimum inhibitory concentration (MIC), ΔtolC",E. coli ΔtolC,2.5 µg/mL
same,"Minimum Inhibitory Concentration, ΔtolC",E. coli ΔtolC,2.5 µg/mL
same,"Minimum inhibitory concentration (MIC), K-12",[1],320 µg/mL
same,"Minimum Inhibitory Concentration, K-12",[1],320 µg/mL
same,Fold change of MICs,EKO-35 araC::emrAB,1 fold
same,"Minimum Inhibitory Concentration, EKO-35 araC::emrAB",EKO-35 araC::emrAB,320 µg/mL
same,Fold change of MICs,EKO-35 araC::mdtEF,1 fold
same,"Minimum Inhibitory Concentration, EKO-35 araC::mdtEF",EKO-35 araC::mdtEF,320 µg/mL
same,Fold change of MICs,EKO-35 araC::acrD,1 fold
same,"Minimum Inhibitory Concentration, EKO-35 araC::acrD",EKO-35 araC::acrD,320 µg/mL
same,Fold change of MICs,EKO-35 araC::macAB,1 fold
same,"Minimum Inhibitory Concentration, EKO-35 araC::macAB",EKO-35 araC::macAB,320 µg/mL
same,Fold change of MICs,EKO-35 araC::acrB,1 fold
same,"Minimum Inhibitory Concentration, EKO-35 araC::acrB",EKO-35 araC::acrB,320 µg/mL
same,Fold change of MICs,EKO-35 araC::acrEF,1 fold
same,"Minimum Inhibitory Concentration, EKO-35 araC::acrEF",EKO-35 araC::acrEF,320 µg/mL
same,Fold change of MICs,EKO-35 araC::emrKY,1 fold
same,"Minimum Inhibitory Concentration, EKO-35 araC::emrKY",EKO-35 araC::emrKY,320 µg/mL
same,Fold change of MICs,[2],1 fold
same,"Minimum Inhibitory Concentration, EKO-35 araC::mexCD",[2],320 µg/mL
same,Fold change of MICs,EKO-35 araC::acrBD408A,1 fold
same,"Minimum Inhibitory Concentration, EKO-35 araC::acrBD408A",EKO-35 araC::acrBD408A,320 µg/mL
same,Fold change of MICs,EKO-35 araC::mdtBC,1 fold
same,"Minimum Inhibitory Concentration, EKO-35 araC::mdtBC",EKO-35 araC::mdtBC,320 µg/mL
same,"Minimum inhibitory concentration (MIC), Pore K-12",wild-type (WT) K-12-Pore,320 µg/mL
same,"Minimum inhibitory concentration, K-12 (WT)-Pore",wild-type (WT) K-12-Pore,320 µg/mL
same,"Minimum inhibitory concentration (MIC), Pore ΔtolC",ΔtolC-Pore,1.25 µg/mL
same,"Minimum inhibitory concentration, ΔtolC-Pore",ΔtolC-Pore,1.25 µg/mL
same,Fold changes of MICs,EKO-35 araC::emrKY Pore,1 fold
same,Minimum inhibitory concentration,EKO-35 araC::emrKY Pore,320 µg/mL
same,Fold changes of MICs,[3],1 fold
same,Minimum inhibitory concentration,[3],320 µg/mL
same,Fold changes of MICs,EKO-35 araC::acrD Pore,1 fold
same,"Minimum inhibitory concentration, EKO-35 araC::acrD Pore",EKO-35 araC::acrD Pore,320 µg/mL
same,Fold changes of MICs,EKO-35-Pore,1 fold
same,"Minimum inhibitory concentration (MIC), Pore EKO-35",EKO-35-Pore,320 µg/mL
same,"Minimum inhibitory concentration, EKO-35-Pore",EKO-35-Pore,320 µg/mL
